# How the values were obtained:
# [1] = biological target: HER2 (Homo sapiens, UniProt P04626); assay: Caliper Mobility Shift Assay, inhibition of HER2 kinase activity; type: biochemical
# [2] = tested on: A549; assay: Inhibition of tumor cells, MTS method; type: cell-based; conditions: Homo sapiens, 72 hours
# Procedure: (§1) (1) Compounds: in vitro studies the test compounds was dissolved in 100% DMSO and diluted until the final concentration of DMSO was 0.1%. The 0.1% (v/v) DMSO was added into culture medium as solvent control. 9 concentration gradients were tested and each gradient was repeated twice. (2) Tumor cell lines: the tumor cell lines were cultivated in RPMI10 culture medium containing 10% fetal calf serum in incubator at 37° C. in a 5% CO2 air incubator. The tested tumor cell lines were: BT474, MDA-MB-231, SK-Br-3, A431, H292, H1975, HCC827, A549, H1650 and H1734. (3) MTS method: cells were seeded into 96-well plate to give a density of about 3000 cells per well, and incubated overnight in a humidified incubator at 37° C. In the next day, the test compounds were added to the wells and further incubated for 72 hours. The cell activity was detected using MTS. IC50 was calculated (the concentration of a compound that is required for 50% inhibition of the cell growth versus the DMSO control group, using nonlinear regression analysis of software GraphPad Prism). […] In a 96-well plate, each test compound was tested at 9 dosage concentrations and each dosage was made in triplicate. Samples were added in 100 μL/well. Cell control and negative control wells contained diluents instead of compounds. Except the negative control well, 100 μL cell suspension of complete medium was added into each test well, wherein corresponding cell numbers were included to assure that the cells in cell control well just cover the bottom of the well as the required incubation time was reached. The plate was incubated in a CO2 incubator at 37° C. for 48 hours. The liquid in test wells was removed by pipetting. 100 μL CCK-8 (Cell counting Kit-8, purchased from DOJINDO Molecular Technologies) detection liquid (containing 10% CCK-8, 5% FBS corresponding medium) was added into each test well, then the plate was incubated in a CO2 incubator under at 37° C. for 3 hours. OD value was detected by ELIASA at A450 nm. Cell viability percentage (%)=(O.D. test compound-O.D. blank)/(O.D. control-O.D. blank)×100. Mean value was calculated for each 3 repeated wells, and IC50 was calculated using nonlinear regression (fitted curve) data analysis method.
# [3] = tested on: H292; assay: Inhibition of tumor cells, MTS method; type: cell-based; conditions: Homo sapiens, NCI-H292, 72 hours
# Procedure: as §1
# [4] = tested on: SK-Br-3; assay: Inhibition of tumor cells, MTS method; type: cell-based; conditions: Homo sapiens, 72 hours
# Procedure: as §1
# [5] = tested on: HCC827; assay: Inhibition of tumor cells, MTS method; type: cell-based; conditions: Homo sapiens, 72 hours
# Procedure: as §1
# [6] = tested on: H1734; assay: Inhibition of tumor cells, MTS method; type: cell-based; conditions: Homo sapiens, NCI-H1734, 72 hours
# Procedure: as §1
# [7] = tested on: H1650; assay: Inhibition of tumor cells, MTS method; type: cell-based; conditions: Homo sapiens, NCI-H1650, 72 hours
# Procedure: as §1
# [8] = biological target: EGFR (Homo sapiens, UniProt P00533); assay: Caliper Mobility Shift Assay, inhibition of EGFR kinase activity; type: biochemical
# Chain of EGFR (P00533 25-1210): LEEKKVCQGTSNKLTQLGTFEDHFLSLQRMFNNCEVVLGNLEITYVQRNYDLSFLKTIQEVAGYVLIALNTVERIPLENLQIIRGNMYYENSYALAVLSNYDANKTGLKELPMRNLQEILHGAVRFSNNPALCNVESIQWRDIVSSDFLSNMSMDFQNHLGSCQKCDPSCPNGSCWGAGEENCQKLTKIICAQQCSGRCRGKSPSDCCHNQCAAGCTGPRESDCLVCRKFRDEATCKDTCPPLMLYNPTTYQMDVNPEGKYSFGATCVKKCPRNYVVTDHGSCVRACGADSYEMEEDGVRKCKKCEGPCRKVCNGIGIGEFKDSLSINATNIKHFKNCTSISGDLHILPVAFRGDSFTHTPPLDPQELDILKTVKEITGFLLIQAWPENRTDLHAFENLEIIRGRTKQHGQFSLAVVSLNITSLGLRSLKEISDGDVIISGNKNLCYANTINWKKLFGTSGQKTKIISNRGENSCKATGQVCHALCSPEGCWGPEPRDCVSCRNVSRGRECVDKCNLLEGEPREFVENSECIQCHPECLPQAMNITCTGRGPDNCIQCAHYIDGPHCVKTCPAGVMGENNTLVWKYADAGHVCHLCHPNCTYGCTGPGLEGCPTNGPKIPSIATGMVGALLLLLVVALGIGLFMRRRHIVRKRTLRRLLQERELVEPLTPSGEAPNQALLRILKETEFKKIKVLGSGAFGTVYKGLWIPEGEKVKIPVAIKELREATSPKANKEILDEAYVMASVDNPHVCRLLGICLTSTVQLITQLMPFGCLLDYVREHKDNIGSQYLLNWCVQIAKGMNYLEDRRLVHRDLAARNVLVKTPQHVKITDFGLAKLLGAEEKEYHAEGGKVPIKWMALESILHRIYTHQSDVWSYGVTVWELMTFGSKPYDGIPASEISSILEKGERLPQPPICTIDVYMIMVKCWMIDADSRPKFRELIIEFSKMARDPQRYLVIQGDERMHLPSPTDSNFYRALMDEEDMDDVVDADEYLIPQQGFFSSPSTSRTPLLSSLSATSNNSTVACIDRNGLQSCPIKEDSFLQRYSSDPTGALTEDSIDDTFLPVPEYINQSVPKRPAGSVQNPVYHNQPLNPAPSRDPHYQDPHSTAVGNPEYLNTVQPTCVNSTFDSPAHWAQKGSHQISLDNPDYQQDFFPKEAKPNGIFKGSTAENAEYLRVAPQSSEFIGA
# [9] = biological target: EGFR^L858R (Homo sapiens, UniProt P00533, L858R); assay: Caliper Mobility Shift Assay, mutant EGFR kinase; type: biochemical; conditions: read-out: Inhibition of Kinase Activity (IC50, nM) EGFR^L858R
# Chain of EGFR^L858R (P00533 25-1210 L858R): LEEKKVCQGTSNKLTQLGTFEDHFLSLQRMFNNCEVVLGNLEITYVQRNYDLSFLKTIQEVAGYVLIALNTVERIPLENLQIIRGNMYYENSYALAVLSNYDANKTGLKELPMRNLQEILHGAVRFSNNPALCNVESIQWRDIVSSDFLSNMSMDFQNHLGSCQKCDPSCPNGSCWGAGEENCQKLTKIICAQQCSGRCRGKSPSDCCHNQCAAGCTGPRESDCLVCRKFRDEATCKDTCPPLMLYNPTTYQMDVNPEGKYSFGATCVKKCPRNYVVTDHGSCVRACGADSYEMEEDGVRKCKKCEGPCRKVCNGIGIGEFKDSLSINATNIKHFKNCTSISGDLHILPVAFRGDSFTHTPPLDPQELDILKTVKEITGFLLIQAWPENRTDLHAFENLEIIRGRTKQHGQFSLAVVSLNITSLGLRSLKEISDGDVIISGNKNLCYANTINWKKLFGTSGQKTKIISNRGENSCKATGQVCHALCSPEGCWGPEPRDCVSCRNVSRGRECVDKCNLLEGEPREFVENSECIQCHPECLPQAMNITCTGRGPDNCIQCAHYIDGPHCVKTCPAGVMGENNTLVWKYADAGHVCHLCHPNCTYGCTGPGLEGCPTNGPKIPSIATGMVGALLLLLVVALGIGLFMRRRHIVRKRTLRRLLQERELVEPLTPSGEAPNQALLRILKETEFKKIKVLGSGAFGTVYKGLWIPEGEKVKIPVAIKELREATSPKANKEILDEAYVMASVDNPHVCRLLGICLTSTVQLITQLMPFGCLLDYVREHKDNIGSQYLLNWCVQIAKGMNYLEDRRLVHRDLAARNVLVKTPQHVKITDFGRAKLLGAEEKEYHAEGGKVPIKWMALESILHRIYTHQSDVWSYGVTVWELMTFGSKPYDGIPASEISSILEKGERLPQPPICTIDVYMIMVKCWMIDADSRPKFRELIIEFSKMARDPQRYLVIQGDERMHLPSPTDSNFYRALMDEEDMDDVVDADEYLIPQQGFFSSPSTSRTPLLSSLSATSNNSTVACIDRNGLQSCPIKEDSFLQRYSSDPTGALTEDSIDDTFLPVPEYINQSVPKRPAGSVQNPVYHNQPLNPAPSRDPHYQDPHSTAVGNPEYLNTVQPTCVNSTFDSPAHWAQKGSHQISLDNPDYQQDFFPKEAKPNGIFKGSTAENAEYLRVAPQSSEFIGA
# [10] = biological target: EGFR^L858R/T790M (Homo sapiens, UniProt P00533, L858R/T790M); assay: Caliper Mobility Shift Assay, double mutant EGFR kinase; type: biochemical; conditions: read-out: Inhibition of Kinase Activity (IC50, nM) EGFR^L858R/T790M
# Chain of EGFR^L858R/T790M (P00533 25-1210 T790M/L858R): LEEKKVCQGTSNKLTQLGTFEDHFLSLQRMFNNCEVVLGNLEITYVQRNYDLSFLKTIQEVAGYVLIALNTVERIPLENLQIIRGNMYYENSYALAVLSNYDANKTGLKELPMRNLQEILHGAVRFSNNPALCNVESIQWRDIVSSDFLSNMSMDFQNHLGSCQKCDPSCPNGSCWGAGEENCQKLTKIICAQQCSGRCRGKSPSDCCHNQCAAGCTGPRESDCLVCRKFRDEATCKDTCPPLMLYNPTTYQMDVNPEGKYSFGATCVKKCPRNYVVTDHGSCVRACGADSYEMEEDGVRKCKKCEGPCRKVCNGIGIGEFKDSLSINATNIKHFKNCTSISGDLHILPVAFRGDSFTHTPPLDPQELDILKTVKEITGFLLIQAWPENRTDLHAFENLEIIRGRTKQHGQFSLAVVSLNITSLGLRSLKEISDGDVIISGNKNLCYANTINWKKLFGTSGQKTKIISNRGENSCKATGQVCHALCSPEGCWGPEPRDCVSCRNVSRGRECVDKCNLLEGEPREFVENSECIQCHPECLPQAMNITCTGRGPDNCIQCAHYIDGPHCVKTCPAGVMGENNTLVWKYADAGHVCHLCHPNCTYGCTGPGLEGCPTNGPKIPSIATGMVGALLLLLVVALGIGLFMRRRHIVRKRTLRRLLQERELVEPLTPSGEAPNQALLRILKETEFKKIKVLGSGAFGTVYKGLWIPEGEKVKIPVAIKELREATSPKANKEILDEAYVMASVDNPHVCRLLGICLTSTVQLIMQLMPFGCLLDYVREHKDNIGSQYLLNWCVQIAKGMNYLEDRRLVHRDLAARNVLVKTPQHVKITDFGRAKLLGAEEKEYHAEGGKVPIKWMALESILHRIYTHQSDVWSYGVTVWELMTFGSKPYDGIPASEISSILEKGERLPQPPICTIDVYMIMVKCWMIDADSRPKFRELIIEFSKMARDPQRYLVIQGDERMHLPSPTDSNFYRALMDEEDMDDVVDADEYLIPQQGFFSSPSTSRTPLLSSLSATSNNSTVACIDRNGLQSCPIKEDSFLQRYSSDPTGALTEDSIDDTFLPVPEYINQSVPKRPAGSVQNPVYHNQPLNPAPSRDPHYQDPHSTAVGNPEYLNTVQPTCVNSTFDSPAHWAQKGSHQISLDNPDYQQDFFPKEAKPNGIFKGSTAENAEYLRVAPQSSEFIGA
# Procedure: Half maximal inhibitory concentration IC50 (the concentration of a compound that is required for 50% inhibition of the activity of an enzyme) was tested based on an immobilized enzyme mixing with a specific substrate and the test compounds in different concentrations. The used test method was Caliper Mobility Shift Assay. […] […].
# According to the same test method, the inhibitory effects of the compound of Formula Ie on mutant EGFR kinases were tested, including single mutant EGFR^LS58R, EGFR^T790M and double mutant EGFR^L858R/T790M kinases.
# [11] = tested on: H1975 human non-small cell lung cancer tumor cells; assay: Transplanted tumor in nude mice, initial H1975 test; type: in vivo, nude mice (BALB/c)
# Procedure: H1975 human non-small cell lung cancer tumor cells were inoculated into 18 nude mice (BALB/c, male, 5-6 weeks of age), and when the mean tumor volume reaches 150 mm^3 the nude mice were randomized into three groups, including: control group (5 nude mice), 20 mg compound Ie/kg/day dose group (8 nude mice) and 75 mg Gefitinib/kg/day (5 nude mice). Test compounds were continuously administrated orally for 21 days. Tumor size and body weight of nude mice were recorded twice weekly from the first day of administration. […] was calculated using the formula (1×w^2), wherein 1 and w respectively represents the maximum and minimum size in each measurement. The change relation of mean tumor volume with the days after tumor transplantation was graphed according to the calculation results.
# Chain of HER2 (P04626 23-1255): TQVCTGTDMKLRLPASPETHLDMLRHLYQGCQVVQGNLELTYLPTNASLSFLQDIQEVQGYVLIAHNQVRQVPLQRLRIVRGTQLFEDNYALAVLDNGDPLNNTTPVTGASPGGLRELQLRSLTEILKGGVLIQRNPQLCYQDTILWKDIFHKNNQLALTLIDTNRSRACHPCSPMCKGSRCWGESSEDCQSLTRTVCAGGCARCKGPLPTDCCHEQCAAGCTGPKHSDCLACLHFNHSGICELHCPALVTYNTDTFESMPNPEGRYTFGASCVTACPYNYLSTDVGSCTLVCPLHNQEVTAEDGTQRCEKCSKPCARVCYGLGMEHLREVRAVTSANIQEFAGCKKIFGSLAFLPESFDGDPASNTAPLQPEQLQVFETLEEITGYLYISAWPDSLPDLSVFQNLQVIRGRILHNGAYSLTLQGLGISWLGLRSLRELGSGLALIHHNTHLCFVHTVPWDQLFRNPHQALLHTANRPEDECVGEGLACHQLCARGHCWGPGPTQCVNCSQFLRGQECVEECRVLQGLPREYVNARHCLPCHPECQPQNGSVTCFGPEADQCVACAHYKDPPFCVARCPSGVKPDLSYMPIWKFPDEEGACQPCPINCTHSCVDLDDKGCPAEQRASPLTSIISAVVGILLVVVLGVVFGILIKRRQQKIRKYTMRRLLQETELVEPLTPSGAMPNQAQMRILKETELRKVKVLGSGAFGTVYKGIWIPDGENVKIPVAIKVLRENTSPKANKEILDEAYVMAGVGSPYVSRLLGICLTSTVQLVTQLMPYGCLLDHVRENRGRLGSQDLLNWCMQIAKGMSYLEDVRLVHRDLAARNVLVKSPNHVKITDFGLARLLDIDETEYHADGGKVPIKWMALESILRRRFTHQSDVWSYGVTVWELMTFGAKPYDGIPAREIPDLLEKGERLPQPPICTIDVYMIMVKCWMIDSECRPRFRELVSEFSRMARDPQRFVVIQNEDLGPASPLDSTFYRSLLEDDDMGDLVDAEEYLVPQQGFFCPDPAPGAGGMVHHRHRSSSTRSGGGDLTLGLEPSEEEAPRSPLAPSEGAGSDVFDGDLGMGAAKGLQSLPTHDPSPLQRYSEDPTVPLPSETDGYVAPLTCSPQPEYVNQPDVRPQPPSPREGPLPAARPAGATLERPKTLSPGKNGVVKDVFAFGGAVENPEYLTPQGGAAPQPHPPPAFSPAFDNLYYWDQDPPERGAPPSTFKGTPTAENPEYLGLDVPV
compound,measurement,setting,value
CN(C)C/C=C/C(=O)Nc1cc2c(Nc3ccc(F)c(Cl)c3)ncnc2cc1OC(F)F [Compound Ie],IC50,[1],11.7 nM
same,IC50,[2],3.72 µM
same,IC50,[3],2.65 µM
same,IC50,[4],0.23 µM
same,IC50,[5],0.002 µM
same,IC50,[6],0.539 µM
same,IC50,[7],3.24 µM
same,IC50,[8],0.4 nM
same,"inhibitory effect on EGFR kinases relative to Afatinib, Neratinib and Gefitinib",[8],over two times
same,IC50,[9],0.65 nM
same,IC50,[10],11 nM
same,T/C %,"[11]; H1975 tumor model, 20 mg compound Ie/kg/day orally for 21 days",59%
same,therapeutic effect on H1975 tumor model,"[11]; compound Ie 20 mg/kg/day, Gefitinib 75 mg/kg/day, orally for 21 days",good therapeutic effect
